Columns and labels:
[1] = system: in vitro fertilized ova (2-cell embryos); assay: Retransfer study / fertility trial (in vitro fertilized 2-cell embryos transferred into foster mothers); assay type: in vivo, mice; details: for No. of Implantation Spots: Odds / No. of Viable Fetuses: Odds: successes divided by failures; for No. of Implantation Spots: Failures: transferred ova minus implantation spots; for No. of Viable Fetuses: Failures: transferred ova minus viable fetuses; for Odds Ratio for comparison to FF-MAS, No. of Implantation Spots / Odds Ratio for comparison to FF-MAS, No. of Viable Fetuses: versus FF-MAS 10 μM
Protocol: In vitro fertilization was performed as described above for the IVF experiment.
One day before the retransfer female recipient mice (foster mothers) in pro-estrus cycle state were mated with vasectomized males in order to trigger pseudogestation. One day later a vaginal check was performed. Animals with a positive, sperm-free vaginal plug (successful mating) entered the study. This day was designated day 0 of gestation (=day 0 after the sterile copulation, day 0 p.c.). […] 2-cell embryos were transferred into the right tube of the foster mothers on day 0 after the sterile copulation under anesthesia. The contra-lateral tube remained unused (check for pseudogestation). The foster mothers were sacrified on day 19 of gestation. The fetuses were removed and examined. The ovaries and uteri were removed immediately to record the number of implantation sites, viable and dead fetuses and resorptions. Apparently non-pregnant uteri were placed in a 10% aqueous solution of ammonium sulfide for about 10 min to stain possible implantation sites in the endometrium. The viable fetuses were individually weighed and their sex determined by inspection of their gonads.
In a fertility trial 269 mice were randomized into 6 groups and implanted with 7-10 in vitro fertilized ova. The in vitro fertilization took place in the presence of vehicle (group 1) or of a substance (groups 2 to 6).
The fertility raising effect of the substances in comparison to the vehicle control was of main interest. Moreover, an improvement compared to the substance FF-MAS was also investigated.
Variables of primary interest are the number of implantation spots and the number of viable fetuses.
The data for implantation spots as well as for viable fetuses have to be considered to have binary character, i.e. it can be expressed in rates or in a number of successes and failures with respect to the number of transferred ova. Therefore, methods as outlined by D. Collett: “Modelling Binary Data”, 2nd edition, Chapman & Hall/CRC, Boca Raton, constitute appropriate approaches to the data analysis.
The odds ratio of one group as compared to the other is defined as: odds ratio (group 1, group 2)=or1,2=odds (group 1)/odds (group 2)
where the odds of a group can be estimated by the number of successes divided by the number of failures in that group.
To reach statements about the significance of any findings, 95% confidence-intervals for the odds ratios are computed as: [ exp(log(or1,2)[…]1.96·se(log(or1,2))); exp(log(or1,2)+1.96·se(log(or1,2)))]
wherein se(log(or1,2)) is the standard error of the log odds ratio (see D. Collett (2003) for the corresponding formula).
As a basis for the computation of odds ratios, the number of successes (i.e., the number of implantation spots of number of viable fetuses) and failures (i.e., the number of transferred ova minus the number of implantation spots or number of viable fetuses) are computed for all groups.

mouse oocytes = assay: In vitro fertilization (IVF) after in vitro maturation of oocytes; assay type: cell-based, mice (C57BL/6J×DBA/2J F1)
Protocol: Changes in the subsequent IVF are therefore probably due to effects of the test compounds on cytoplasmic maturation.
Immature female mice (C57BL/6J×DBA/2J F1) in the age of 21-24 days were used as oocyte donors. Animals were given an i.p. injection of 10 IU pregnant mare serum gonadotropin (PMSG) to induce follicular growth. Animals were killed by cervical dislocation 48 hours later and the ovaries were dissected out. As sperm donors eight week old male mice (C57BL/6J×DBA/2J F1) were used.
Oocytes were isolated from the ovaries by manual rupture of the follicles using a pair of 27-gauge needles. Spherical naked oocytes (NkO) and CEOs displaying an intact GV were selected and placed in α-minimum essential medium (α-MEM without ribonucleosides, Gibco BRL, Gaithersburg; Cat. No. 22561) supplemented with 8 mg/ml human serum albumin (HSA), 0.23 mM pyruvate, 2 mM glutamine, 100 IU/ml penicillin and 100 μg/ml streptomycin.
The oocytes were rinsed three times in culture medium without oil overlay in 4-well multidishes containing 0.4 ml of the respective oocyte culture medium.
The oocyte culture medium was supplemented with 6.4% Fetal Bovine Serum (FBS). Solutions of novel compound IA and of the two compounds in comparison as mentioned were prepared from a stock solution containing 1 mg/ml of compound dissolved in absolute ethanol. The control group was cultured with a corresponding amount of ethanol.
After a culture time of 18-19 hours oocytes were further processed for in vitro fertilization. […] Oocytes were briefly washed without any test compound and subsequently transferred to the insemination dishes prepared in advance, which contained approximately 600.000 capacitated sperm cells per 500 μl IVF medium (obtained from the epididymides of male mice). The dishes were then incubated under defined gas conditions (5% CO2 in air) at 37° C. in a modified α-MEM IVF medium supplemented with 8 mg/ml HSA, 0.23 mM pyruvate, 100 IU penicillin/ml and 100 μg streptomycin/ml as described above for oocyte maturation.
Examination of the oocytes was carried out 22-24 hours after insemination in order to check fertilization and to record the number of pronucleus (PN) and 2-cell stage embryos. The fertilization rate was determined as the number of oocytes that had reached the PN or 2-cell embryo stage, relative to the total number inseminated.

## C[C@H](CN1CCSCC1)[C@H]1CC=C2C3=C(CC[C@@]21C)[C@@]1(C)CC[C@H](O)C(C)(C)[C@@H]1CC3 [Compound IA, (20S)-20-[(thiomorpholin-4-yl)methyl]-4,4-dimethyl-5α-pregna-8,14-dien-3β-ol]
[1]; 1 μM
  No. of Implantation Spots: Success: 120
  No. of Viable Fetuses: Success: 51
  Odds Ratio for comparison to vehicle control, No. of Implantation Spots: 1.51
  Odds Ratio for comparison to vehicle control, No. of Viable Fetuses: 1.70
  increase of the odds of a successful implantation versus vehicle control: 51%
  No. of Implantation Spots: Odds: 0.38
  No. of Viable Fetuses: Odds: 0.13
  No. of Implantation Spots: Failures: 317
  No. of Viable Fetuses: Failures: 386
  Odds Ratio for comparison to FF-MAS, No. of Implantation Spots: 1.27
  Odds Ratio for comparison to FF-MAS, No. of Viable Fetuses: 1.15
[1]; 10 μM
  No. of Implantation Spots: Success: 123
  No. of Viable Fetuses: Success: 40
  Odds Ratio for comparison to vehicle control, No. of Implantation Spots: 1.55
  Odds Ratio for comparison to vehicle control, No. of Viable Fetuses: 1.29
  better chance (odds) of a successful implantation versus vehicle control: 55%
  No. of Implantation Spots: Odds: 0.39
  No. of Viable Fetuses: Odds: 0.10
  No. of Implantation Spots: Failures: 317
  No. of Viable Fetuses: Failures: 400
  Odds Ratio for comparison to FF-MAS, No. of Implantation Spots: 1.30
  Odds Ratio for comparison to FF-MAS, No. of Viable Fetuses: 0.87
[1]; 95% confidence interval of odds ratio, all doses tested
  shows significant improvement of odds versus vehicle control, number of implantation spots: significant improvement of odds
[1]; FF-MAS 10 μM, compound IA 1 μM and 10 μM
  implantation rate per transferred 2-cell embryos (FIG. 4): higher numbers
[1]; lower doses (1 μM)
  increase of the odds for a success in terms of viable fetuses versus vehicle control: 70%
Mouse oocytes; already at 0.1 μM, tends to be even higher at 1 μM
  effect on 2-cell and blastocyst rate: beneficial effect
Mouse oocytes; in vitro maturation without hypoxanthine, then IVF, n=18
  fertilization rates of mouse oocytes compared to vehicle control (FIG. 3): higher fertilization rates
